Experimental data taken from patent US9896512B2, “Antitumor peptide derived from a complementarity determining region of a humanized monoclonal antibody to NAP12B transporter” (Recepta Biopharma S.A., priority 2010, dated 2018).
Positions of bridges follow the written chain, without caps; N, C: chain ends. Non-standard residues stand in square brackets, D forms with d. No end group written: not given here. dCit = NC(=O)NCCC[C@@H](N)C(=O)O

Legend:
[1] = system: B16F10-Nex2 melanoma cells; experiment: Cell migration, wound healing assay; type: cell-based, murine; details: peptide 500 μM, 24 hours after wounding
Procedure: For the migration studies, 5×10^5 or 10^6 cells were distributed on 6-well plates and let them to adhere for 2 hours at 37° C./5% CO2. The culture medium was changed and the peptide was added at 500 μM overnight. The cell monolayer was “wounded” with a P1000 tip and incubated for 24 hours. Images of untreated cells (control) and peptide treated cells were captured with a JENOPTIK camera. Cell numbers (nuclei) were determined using the Pixcavator software version 5.0.
Viable B16F10-Nex2 cells (5×105)/well were distributed on a 6-well culture plate and incubated overnight at 37° C. in a humidified chamber with 5% CO2. A P1000 tip was used for wounding the cell monolayer and the image was immediately captured (0 hour) using a camera (Jenoptik) with the software Progres 2.8. After 24 hours a new image of the same field was obtained and recorded (24 hours).
Viable B16F10-Nex2 cells (3×10^5)/well were distributed in a 12-well culture plate and incubated for 4 hours at 37° C. in a humidified chamber with 5% CO2. Fresh medium containing RB10 (SEQ ID NO: 9) at different concentrations was added to the wells and incubated again for 4 hours. The monolayer wounding was performed as described above in Example 12, and images obtained accordingly. After 24 hours a new image in the same field was obtained and recorded (24 hours). […] Magnification ×100.

[2] = system: melanoma B16F10-Nex2 cells; experiment: Alanine scanning series cell adhesion assay (MTT after trypsin-EDTA); type: cell-based, murine; details: 1 mM peptide, 24 hours
Procedure: The peptide RB10 (SEQ ID NO: 9) was engineered to replace each amino acid by alanine using Ala-scan methodology, and thus help evaluate the role of each amino acid on biological effect, specifically on the hyper-adherence observed with 1 mM peptide.
For this purpose, viable melanoma B16F10-Nex2 cells (1×10^4)/well were distributed on a 96-well culture plate and incubated for 4 hours. Fresh media containing 1 mM of the alanine-scanning series for RB10 was added and incubated for 24 hours. Treated cells were detached with 30 μl/well of trypsin-EDTA for five minutes at 37° C. and gently washed with PBS. Cells were incubated for 4 hours with 0.5 mg/mL of MTT [3-(4,5-Dimethylthiazol-2-yl)-2,5-diphenyltetrazolium bromide] in fresh media and the formazan crystals were solubilized adding 1 volume of a 10% SDS solution overnight. Intensity was measured using a plate reader at 570 nm. […] The 100% value for each peptide represented the treated cells that had not been trypsinized.

Substance | inhibition of cell migration (words) [1] | trypsin/EDTA-resistant cell adherence [2]
CGTFEYRAQAGWAGRTAC-NH2 (disulfide 1-18; N-terminus assumed; SMILES C[C@@H]1NC(=O)[C@H](Cc2c[nH]c3ccccc23)NC(=O)CNC(=O)[C@H](C)NC(=O)[C@H](CCC(N)=O)NC(=O)[C@H](C)NC(=O)[C@H](CCCNC(=N)N)NC(=O)[C@H](Cc2ccc(O)cc2)NC(=O)[C@H](CCC(=O)O)NC(=O)[C@H](Cc2ccccc2)NC(=O)[C@H]([C@@H](C)O)NC(=O)CNC(=O)[C@@H](N)CSSC[C@@H](C(N)=O)NC(=O)[C@H](C)NC(=O)[C@H]([C@@H](C)O)NC(=O)[C@H](CCCNC(=N)N)NC(=O)CNC1=O) [RB9 Scramble] | partial inhibition | 
CFIARAGWYATEARGGQC-NH2 [RB9 Sc3] | partial inhibition | 
C(dA)RGETARATFAYC-NH2 (C[dA]RGETARATFAYC-NH2; disulfide 1-14; N-terminus assumed; SMILES C[C@@H]1NC(=O)[C@H](CCCNC(=N)N)NC(=O)[C@H](C)NC(=O)[C@H]([C@@H](C)O)NC(=O)[C@H](CCC(=O)O)NC(=O)CNC(=O)[C@H](CCCNC(=N)N)NC(=O)[C@@H](C)NC(=O)[C@@H](N)CSSC[C@@H](C(N)=O)NC(=O)[C@H](Cc2ccc(O)cc2)NC(=O)[C@H](C)NC(=O)[C@H](Cc2ccccc2)NC(=O)[C@H]([C@@H](C)O)NC1=O) [RB9 M3] | partial inhibition | 
CARGETAAATFAYWGQG-NH2 [RB10 A8] | partial inhibition | normally detached
CARAETARATFAYWGQG-NH2 [RB10 A4] | partial inhibition | high trypsin/EDTA-resistant cell adherence
YWCRAAFTTEAGRACQGG-NH2 (disulfide 3-15; N-terminus assumed; SMILES C[C@@H]1NC(=O)[C@H](C)NC(=O)[C@H](CCCNC(=N)N)NC(=O)[C@@H](NC(=O)[C@H](Cc2c[nH]c3ccccc23)NC(=O)[C@@H](N)Cc2ccc(O)cc2)CSSC[C@@H](C(=O)N[C@@H](CCC(N)=O)C(=O)NCC(=O)NCC(N)=O)NC(=O)[C@H](C)NC(=O)[C@H](CCCNC(=N)N)NC(=O)CNC(=O)[C@H](C)NC(=O)[C@H](CCC(=O)O)NC(=O)[C@H]([C@@H](C)O)NC(=O)[C@H]([C@@H](C)O)NC(=O)[C@H](Cc2ccccc2)NC1=O) [RB9 Sc2] | partial inhibition | 
CARGETA(dCit)AT(dF)AYWGQ(dA)-NH2 (CARGETA[dCit]AT[dF]AYWGQ[dA]-NH2; N-terminus assumed; SMILES C[C@H](NC(=O)[C@@H](NC(=O)[C@H](CCC(=O)O)NC(=O)CNC(=O)[C@H](CCCNC(=N)N)NC(=O)[C@H](C)NC(=O)[C@@H](N)CS)[C@@H](C)O)C(=O)N[C@H](CCCNC(N)=O)C(=O)N[C@@H](C)C(=O)N[C@H](C(=O)N[C@H](Cc1ccccc1)C(=O)N[C@@H](C)C(=O)N[C@@H](Cc1ccc(O)cc1)C(=O)N[C@@H](Cc1c[nH]c2ccccc12)C(=O)NCC(=O)N[C@@H](CCC(N)=O)C(=O)N[C@H](C)C(N)=O)[C@@H](C)O) [RB10 M1] | partial inhibition | 
CAAGETARATFAYWGQG-NH2 [RB10 A3] | partial inhibition | normally detached
C(dA)RGETA(dCit)ATFAYWGQ(dA)-NH2 (C[dA]RGETA[dCit]ATFAYWGQ[dA]-NH2; N-terminus assumed; SMILES C[C@H](NC(=O)[C@H](Cc1ccccc1)NC(=O)[C@@H](NC(=O)[C@H](C)NC(=O)[C@@H](CCCNC(N)=O)NC(=O)[C@H](C)NC(=O)[C@@H](NC(=O)[C@H](CCC(=O)O)NC(=O)CNC(=O)[C@H](CCCNC(=N)N)NC(=O)[C@@H](C)NC(=O)[C@@H](N)CS)[C@@H](C)O)[C@@H](C)O)C(=O)N[C@@H](Cc1ccc(O)cc1)C(=O)N[C@@H](Cc1c[nH]c2ccccc12)C(=O)NCC(=O)N[C@@H](CCC(N)=O)C(=O)N[C@H](C)C(N)=O) [RB10 M4] | partial inhibition | 
C(dA)RGETARATFAYWGQGC-NH2 [RB9 M5] | partial inhibition | 
C(dA)RGETA(dCit)AT(dF)AYWGQ(dA)C-NH2 (C[dA]RGETA[dCit]AT[dF]AYWGQ[dA]C-NH2; disulfide 1-18; N-terminus assumed; SMILES C[C@@H]1NC(=O)[C@H]([C@@H](C)O)NC(=O)[C@H](CCC(=O)O)NC(=O)CNC(=O)[C@H](CCCNC(=N)N)NC(=O)[C@@H](C)NC(=O)[C@@H](N)CSSC[C@@H](C(N)=O)NC(=O)[C@@H](C)NC(=O)[C@H](CCC(N)=O)NC(=O)CNC(=O)[C@H](Cc2c[nH]c3ccccc23)NC(=O)[C@H](Cc2ccc(O)cc2)NC(=O)[C@H](C)NC(=O)[C@@H](Cc2ccccc2)NC(=O)[C@H]([C@@H](C)O)NC(=O)[C@H](C)NC(=O)[C@@H](CCCNC(N)=O)NC1=O) [RB9 M2] | partial inhibition | 
AARGETARATFAYWGQG-NH2 [RB10 A1] | non-inhibition | normally detached
CARGEAARATFAYWGQG-NH2 [RB10 A6] | partial inhibition | high trypsin/EDTA-resistant cell adherence
C(dA)RGETA(dCit)ATFAYWGQ(dA)C-NH2 (C[dA]RGETA[dCit]ATFAYWGQ[dA]C-NH2; disulfide 1-18; N-terminus assumed; SMILES C[C@@H]1NC(=O)[C@H](Cc2ccccc2)NC(=O)[C@H]([C@@H](C)O)NC(=O)[C@H](C)NC(=O)[C@@H](CCCNC(N)=O)NC(=O)[C@H](C)NC(=O)[C@H]([C@@H](C)O)NC(=O)[C@H](CCC(=O)O)NC(=O)CNC(=O)[C@H](CCCNC(=N)N)NC(=O)[C@@H](C)NC(=O)[C@@H](N)CSSC[C@@H](C(N)=O)NC(=O)[C@@H](C)NC(=O)[C@H](CCC(N)=O)NC(=O)CNC(=O)[C@H](Cc2c[nH]c3ccccc23)NC(=O)[C@H](Cc2ccc(O)cc2)NC1=O) [RB9 M1] | partial inhibition | 
CGTFEYRAQAGWAGRTA-NH2 [RB10 Scramble] | partial inhibition | 
CARGATARATFAYWGQG-NH2 [RB10 A5] |  | normally detached
CARGETA(dCit)ATFAYWGQGC-NH2 [RB9 M4] | partial inhibition | 
